Assay: Human HepG2 cell viability assay in 384 well format
Format: toxicity, cell-based
Set-up: dose 125 nL, time 70.5 hour; concentration not given beside the values
Conditions: HepG2 cells, read-out: Inhibition

SMILES | cytotoxicity at 70.5 h [%]
CC(C)NC(=O)C[C@@H]1CCNC[C@@H]1Cc1cc(-c2ccccc2)on1 | -1.73
CCNC(=O)N1CC[C@H]2CC(=O)N(C3CCCCC3)CC[C@H]2C1 | -5.33
Cn1nc(-c2cccs2)cc1[C@H]1CN2CC[C@H]1C[C@@H]2CN | -6.9
O[C@@H]1C[C@@H](c2nc(-c3ccc(F)cc3)no2)N(C2CCOCC2)C1 | -3.33
CC(C)(C)c1cc(C[C@H]2CNCC[C@H]2CC(=O)NCc2cccs2)no1 | -6.24
Cc1noc([C@@H]2C[C@H](NC(=O)NC3CCCCC3)CN2C)n1 | -7.54
Cc1noc([C@@H]2C[C@H](NC(=O)Nc3cccc(F)c3)CN2C)n1 | 6.23
Cc1ccc(N2C(=O)N[C@@H]3CCN(C(=O)C4CC4)[C@@H]3C2=O)cc1 | -15.3
O=C1N[C@@H]2CCN(C(=O)c3ccccc3)[C@@H]2C(=O)N1c1ccc(F)cc1 | -12.9
Nc1ccc(CC2COc3ccccc3C2)cn1 (centres undefined) | -5.61
CC(O)CN1CC2(CCC1=O)CCN(Cc1cc(F)ccc1Cl)CC2 (centres undefined) | -2.56
Cc1cc(N2CCC(n3cc(CCCO)nn3)CC2)ccn1 | -9.19
Cc1cnccc1CN(C)C(=O)C(C)(C)NC(=O)c1cccs1 | 0.902
Cc1ccsc1[C@@H]1CCN(C(=O)Cn2cc3ccccc3n2)C[C@H]1O | 15.1
O=C(c1ccco1)N1CCC(n2cc(-c3ccsc3)nn2)CC1 | -5.81
Cc1ccc(CN2CCN(Cc3ccncc3)CC2=O)cc1 | -0.378
Cc1cc(F)ccc1N1CCC(N2C[C@@H](C)[C@@](C)(O)C2)CC1 | -5.91
COc1ccc(CN2C[C@@H](CN(C)C)[C@@H](CO)C2)cc1CN1CCCC1 | 5.87
Cc1noc(C)c1CN(C)c1nc(C2CCCC2)nc2c1cnn2C | 9.62
O=S1(=O)COCCN1CCCOc1ccc(F)cc1 | 22.1
CCCN1CCN(C(=O)c2ccnc(N)c2)[C@H]2CS(=O)(=O)C[C@H]21 | 2.28
CCN(Cc1cnn(C)c1)C(=O)c1ccc(C)c(N2CCNC2=O)c1 | -17.2
Cn1cc(C(=O)N2CC[C@@]3(O)CCN(C(=O)C4CCCC4)C[C@H]3C2)cn1 | -10.4
CCN1CC(C(=O)NCCc2csc(-c3ccncc3)n2)CCC1=O (centres undefined) | -5.21
Cc1nn(C)c2nc(NCCCN3CCCC(CO)C3)sc12 (centres undefined) | -9.15
CCOC(=O)C1(CCOC)CCCN(Cc2nccn2CC)C1 (centres undefined) | -18.3
CN(C)C(=O)c1cc(-c2cnc(N)nc2)nc2cc(F)ccc12 | -2.39

SMILES | cytotoxicity at 70.5 h [%]
C[C@@H]1CN(Cc2cc3ccccc3n2C)CC[C@]1(C)O | 16.1
Cc1oc(-c2ccoc2)nc1CN1CCCCC1CCc1ccccc1 (centres undefined) | -2.03
CN(CCCc1cnn(C)c1)C(=O)C1CCC(=O)N(C2CCCC2)C1 (centres undefined) | -0.586
CC(C)(O)CCc1ccc(C(=O)N2CCN(CC3CCCC3)CC2)cc1 | 4.24
O=C(c1scc2c1OCCO2)N1CCOC(Cc2cccc(F)c2)C1 (centres undefined) | -5.83
Cc1c(-c2c(-c3ccccc3)ncn2[C@@H](C(=O)O)[C@H](C)O)cnn1C | 3.82
CS(=O)(=O)NCCC1CN(Cc2ccccc2F)CCO1 (centres undefined) | 0.792
CC1CCCCN1C1CN(c2nc(C3CCCC3)nc3c2cnn3C)C1 (centres undefined) | -3.67
CCn1cc(CN2CCN(C)C3(CCC(=O)N(CC4CC4)CC3)C2)cn1 (centres undefined) | 1.18
CN(C)CC1(O)CCCN(c2nc(-c3ccccc3)no2)CC1 (centres undefined) | -7.51
c1ccc(Cc2nc(CNC3CCOC4(CCOCC4)C3)no2)cc1 (centres undefined) | -13.7
CNc1ncc(CN(C)Cc2cc(O)c3cc(C)cc(C)c3n2)cn1 | -15.9
O=C(NCc1cccnc1-n1cncn1)C1CC2(CCNCC2)CN1 (centres undefined) | -4.56
CNCC(=O)N1CCCC(c2cccc(Nc3nc(C)cc(C)n3)n2)C1 (centres undefined) | 58.7
O=C(Cn1ccnc1)N1C[C@@H]2CC[C@H](Oc3ccccc3)[C@@H]2C1 | -3
Cc1nc(N)cc(C2CN(C(=O)c3ccn(C)n3)CCO2)n1 (centres undefined) | -11.7
CC(=O)N1CCC(C(=O)N(C)[C@@H]2CCC[C@@H](N3CCCC3)[C@@H]2O)CC1 | 41.3
COc1ccc(C2(NC(=O)CCn3cncn3)CCCCC2)cc1 | -6.29
O=C(c1ccccn1)N1CCc2c(nc(N3CCCC3)[nH]c2=O)C1 | -1.38
O=C(Cn1c(=O)n(Cc2ccco2)c2ncccc21)NC1CCCCC1 | 38.5
O=C(c1cccs1)N1CCC(Cn2nc(-c3ccco3)ccc2=O)CC1 | 8.96
O=C(Cc1ccsc1)N1CCC(n2nc(-c3ccco3)ccc2=O)CC1 | 1.25
O=C(c1cccs1)N1CCC(n2nc(-c3ccco3)ccc2=O)CC1 | 11.7
COc1cc2nc3n(c(=O)c2cc1OC)CCN(C)CC3 | 3.41
Cc1cc(-c2cnc(N3CCN(C)CC3)nc2-c2ccc(C)s2)on1 | 6.38
Cc1nccn1-c1cccc(C2CCCN(C3CCCCC3)C2)n1 (centres undefined) | 2.4
CN1CCCC(Cc2cncc(Br)c2)CC1 (centres undefined) | 0.975
